From patent publication US9856216B2, “Compounds as TNIK, IKKε and TBK1 inhibitors and pharmaceutical composition comprising same” (GREEN CROSS CORPORATION, priority 2015, dated 2018) come the findings set out here.

T1 sequence (Q9UKE5 1-367 limits assumed): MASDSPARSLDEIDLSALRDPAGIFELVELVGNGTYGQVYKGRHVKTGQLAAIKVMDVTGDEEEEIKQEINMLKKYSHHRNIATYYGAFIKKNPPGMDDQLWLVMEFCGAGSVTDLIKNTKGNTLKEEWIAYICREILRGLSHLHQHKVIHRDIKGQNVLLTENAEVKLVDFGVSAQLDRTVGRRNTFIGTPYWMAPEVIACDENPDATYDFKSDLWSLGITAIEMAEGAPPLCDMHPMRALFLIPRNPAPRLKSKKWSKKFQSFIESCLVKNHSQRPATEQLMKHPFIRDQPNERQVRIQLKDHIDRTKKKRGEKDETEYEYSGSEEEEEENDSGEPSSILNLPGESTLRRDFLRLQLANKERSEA

One assay addresses T1, TNIK (Homo sapiens, UniProt Q9UKE5).
T1 construct: purchased Promega V4158
The assay can be described thus: ADP-Glo Kinase Assay, inhibition activity on TNIK. It is filed as biochemical.
Conditions: not given
Here is the method:
The inhibition activities on TNIK, IKKε and TBK1 were measured by a luminometer, TNIK/IKKε/TBK1 Kinase Enzyme System (Promega, Ca# V4158; Invitrogen, PR8031B, Promega, Ca# V3991) and ADP-Glo Kinase Assay using ADP-Glo™ Kinase Analysis Kit (Promega, Ca# V9101) and a kinase reaction buffer [40 mM Tris(pH 7.5), 20 mM MgCl2, 0.1 mg/mL BSA] in accordance with the manufacturer's protocol.
(ADP-Glo turns the ADP formed in a reaction into a luminescent signal.)
On to `O=C(Nc1ccc(-c2cccs2)c2c1C(=O)NC2)c1ccc(NCCO)cc1` [Example 371, 4-((2-Hydroxyethyl)amino)-N-(3-oxo-7-(thiophen-2-yl)isoindolin-4-yl)benzamide], for which the “TNIK (μM)” value is “Insoluble”.
The same measure, in the same setting: as for `COC(=O)c1ccc(-c2ccc(NC(=O)c3ccccc3)c3c2CNC3=O)cc1` [Example 10, methyl 4-(7-benzamido-1-oxoisoindolin-4-yl)benzo ate], the entry is “Insoluble”.
On the same count and under the same terms, as for `O=C(Nc1ccc(-c2ccccc2)c2c1C(=O)NC2)c1ccc([N+](=O)[O-])cc1` [Example 119, 4-Nitro-N-(3-oxo-7-phenylisoindolin-4-yl)benzamide], the entry is “Insoluble”.

The assay is the same for the next values; noted with them: read-out: TNIK.
Turning to `COc1ccccc1-c1ccc(NC(=O)c2ccc(NCCCN3CCOCC3)cc2)c2c1CNC2=O` [Example 328], the IC50 worked out at 400 nM.
The same measure, in the same setting: under `CN(C)CCNc1ccc(C(=O)Nc2ccc(-c3ccco3)c3c2C(=O)NC3)cc1` [Example 291, 4-((2-(Dimethylamino)ethyl)amino)-N-(7-(furan-2-yl)-3-oxoisoindolin-4-yl)benzamide] stands 540 nM; under `O=C(Nc1ccc(-c2ccc(F)c(F)c2)c2c1C(=O)NC2)c1ccccc1` [Example 33, N-(7-(3,4-difluorophenyl)-3-oxoisoindolin-4-yl)benzamide], 3700 nM; under `O=C(Nc1ccc(-c2ccnc3ccccc23)c2c1C(=O)NC2)c1ccc(F)cc1` [Example 216, 4-Fluoro-N-(3-oxo-7-(quinolin-4-yl)isoindolin-4-yl)benzamide], 160 nM.
Same read-out and setting: under `O=C(Nc1ccc(Nc2ccccc2)c2c1C(=O)NC2)c1ccc(NCCCN2CCCCC2)cc1` [Example 479, N-(3-oxo-7-(phenylamino)isoindolin-4-yl)-4-((3-(piperidin-1-yl)propyl)amino)benzamide] stands 110 nM.
Same read-out and setting: under `N#Cc1ccccc1-c1ccc(NC(=O)c2ccccc2)c2c1CNC2=O` [Example 183, N-(7-(2-cyanophenyl)-3-oxoisoindolin-4-yl)benzamide] stands 1700 nM; under `CC(C)c1ccc(-c2ccc(NC(=O)c3ccccc3)c3c2CNC3=O)cc1` [Example 133, N-(7-(4-isopropylphenyl)-3-oxoisoindolin-4-yl)benzamide], over 20000 nM; under `COc1ccccc1-c1ccc(NC(=O)c2ccc(NCCN3CCCC3)cc2)c2c1CNC2=O` [Example 318, N-(7-(2-methoxyphenyl)-3-oxoisoindolin-4-yl)-4-((2-(pyrrolidin-1-yl)ethyl)amino)benzamide], 260 nM.
As for `Cc1cccc(C(=O)Nc2ccc(-c3ccccc3)c3c2C(=O)NC3)c1` [Example 88, 3-Methyl-N-(3-oxo-7-phenylisoindolin-4-yl)benzamide], the IC50 stood at 2800 nM.
On the same count and under the same terms, under `CC(C)Oc1cccc(-c2ccc(NC(=O)c3ccccc3)c3c2CNC3=O)c1` [Example 7, N-(7-(3-isopropoxyphenyl)-3-oxoisoindolin-4-yl)benzamide] stands over 20000 nM.
The same measure, in the same setting: as for `Cc1cccc(Nc2ccc(NC(=O)c3ccc(NCCN4CCCC4)cc3)c3c2CNC3=O)c1C` [Example 469, N-(7-((2,3-dimethylphenyl)amino)-3-oxoisoindolin-4-yl)-4-((2-(pyrrolidin-1-yl)ethyl)amino)benzamide], the figure is 370 nM.
As for `O=C(Nc1ccc(-c2ccccc2)c2c1C(=O)NC2)c1cccc(F)c1` [Example 130, 3-fluoro-N-(3-oxo-7-phenylisoindolin-4-yl)benzamide], the IC50 is over 20000 nM.
Consider `O=C(Nc1ccc(Nc2cc(C(F)(F)F)cc(C(F)(F)F)c2)c2c1C(=O)NC2)c1ccc(NCCCN2CCCC2)cc1` [Example 466, N-(7-((3,5-bis(trifluoromethyl)phenyl)amino)-3-oxoisoindolin-4-yl)-4-((3-(pyrrolidin-1-yl)propyl)amino)benzamide], for which the IC50 worked out at 14000 nM.
The same measure, in the same setting: as for `O=C(Nc1ccc(-c2ccccc2)c2c1C(=O)NC2)c1cccc(Cl)c1` [Example 90, 3-Chloro-N-(3-oxo-7-phenylisoindolin-4-yl)benzamide], the figure is over 20000 nM; as for `Cc1ccc(Nc2ccc(NC(=O)c3ccccc3)c3c2CNC3=O)cc1` [Example 412, N-(3-oxo-7-(p-tolylamino)isoindolin-4-yl)benzamide], 4100 nM.
On to `O=C(Nc1ccc(Sc2ccccc2)c2c1C(=O)NC2)c1ccc(F)cc1` [Example 404, 4-Fluoro-N-(3-oxo-7-(phenylthio)isoindolin-4-yl)benzamide], for which the IC50 was over 20000 nM.
Still for that read-out and setting: as for `O=C(Nc1ccc(Br)c2c1C(=O)NC2)c1ccc(NCCN2CCCC2)cc1` [Example 283, N-(7-bromo-3-oxoisoindolin-4-yl)-4-((2-(pyrrolidin-1-yl)ethyl)amino)benzamide], the figure is 1760 nM.
For `COc1ccccc1-c1ccc(NC(=O)c2ccc(N3CCOCC3)cc2)c2c1CNC2=O` [Example 323, N-(7-(2-methoxyphenyl)-3-oxoisoindolin-4-yl)-4-morpholino benzamide], the IC50 was 370 nM.
Still for that read-out and setting: under `Nc1ccc(-c2ccccc2)c2c1C(=O)NC2=O` [Example 271, 4-Amino-7-phenylisoindolin-1,3-dione] stands 2500 nM; under `O=C(Nc1ccc(C(=O)N2CCCC2)c2c1C(=O)NC2)c1ccc(NCCN2CCCC2)cc1` [Example 392, N-(3-oxo-7-(pyrrolidine-1-carbonyl)isoindolin-4-yl)-4-((2-(pyrrolidin-1-yl)ethyl)amino)benzamide], over 20000 nM; under `Nc1ccc(-c2ccncc2)c2c1C(=O)NC2` [Example 65, 7-Amino-4-(pyridin-4-yl)isoindolin-1-one], over 20000 nM.
Regarding `O=C(Nc1cccc2c1C(=O)NC2)c1ccc(NCCN2CCCC2)cc1` [Example 346, N-(3-oxoisoindolin-4-yl)-4-((2-(pyrrolidin-1-yl)ethyl)amino) benzamide], the IC50 came to 6170 nM.
Take `O=C(Nc1ccc(-c2cc(Cl)cc(Cl)c2)c2c1C(=O)NC2)c1ccccc1` [Example 21, N-(7-(3,5-dichlorophenyl)-3-oxoisoindolin-4-yl)benzamide]: the IC50 is over 20000 nM.
Same read-out and setting: as for `O=C(Nc1ccc(-c2ccccc2)c2c1C(=O)NC2)c1ccc(Cl)cc1Cl` [Example 103, 2,4-Dichloro-N-(3-oxo-7-phenylisoindolin-4-yl)benzamide], the figure is over 20000 nM.
Still for that read-out and setting: under `Cc1ccccc1NC(=O)Nc1ccc(-c2ccccc2)c2c1C(=O)NC2` [Example 238, 1-(3-Oxo-7-phenylisoindolin-4-yl)-3-(o-tolyl)urea] stands over 20000 nM.
Same read-out and setting: as for `COc1cccc(-c2ccc(NC(=O)c3ccccc3)c3c2CNC3=O)c1F` [Example 24, N-(7-(2-fluoro-3-methoxyphenyl)-3-oxoisoindolin-4-yl)benzamide], the figure is over 20000 nM; as for `N#CCCNc1ccc(-c2ccccc2)c2c1C(=O)NC2` [Example 254, 3-((3-Oxo-7-phenylisoindolin-4-yl)amino)propanenitrile], 5600 nM; as for `O=C(Nc1ccc(Nc2ccccc2)c2c1C(=O)NC2)c1ccc(NCCCN2CCCC2)cc1` [Example 462, N-(3-oxo-7-(phenylamino)isoindolin-4-yl)-4-((3-(pyrrolidin-1-yl)propyl)amino)benzamide], 290 nM.
Regarding `COc1ccccc1C(=O)Nc1ccc(-c2ccccc2)c2c1C(=O)NC2` [Example 129, 2-Methoxy-N-(3-oxo-7-phenylisoindolin-4-yl)benzamide], the IC50 was over 20000 nM.
The same measure, in the same setting: as for `O=C(Nc1ccc(-c2cccs2)c2c1C(=O)NC2)c1ccc(NCCN2CCCCC2)cc1` [Example 374, N-(3-oxo-7-(thiophen-2-yl)isoindolin-4-yl)-4-((2-(piperidin-1-yl)ethyl)amino)benzamide], the figure is 480 nM; as for `CC(=O)Nc1ccccc1C(=O)Nc1ccc(-c2ccccc2)c2c1C(=O)NC2` [Example 106, 2-Acetamido-N-(3-oxo-7-phenylisoindolin-4-yl)benzamide], over 20000 nM.
The same measure, in the same setting: under `COc1cccc(Nc2ccc(NC(=O)c3ccc(NCCCN4CCCC4)cc3)c3c2CNC3=O)c1` [Example 447, N-(7-((3-methoxyphenyl)amino)-3-oxoisoindolin-4-yl)-4-((3-(pyrrolidin-1-yl)propyl)amino)benzamide] stands 550 nM.
As for `Cc1cccc(Nc2ccc(NC(=O)c3ccc(NCCCN4CCCCC4)cc3)c3c2CNC3=O)c1` [Example 452, N-(3-oxo-7-(m-tolylamino)isoindolin-4-yl)-4-((3-(piperidin-1-yl)propyl)amino)benzamide], the IC50 stood at 440 nM.
On the same count and under the same terms, as for `O=C(Nc1ccc(-c2ccccc2)c2c1C(=O)NC2)c1cccs1` [Example 203, N-(3-oxo-7-phenylisoindolin-4-yl)thiophene-2-carboxamide], the figure is 350 nM; as for `NCCNc1ccc(C(=O)Nc2ccc(Nc3ccccc3)c3c2C(=O)NC3)cc1` [Example 481, 4-((2-Aminoethyl)amino)-N-(3-oxo-7-(phenylamino)isoindolin-4-yl)benzamide], 200 nM.
Same read-out and setting: under `O=C(Nc1ccc(-c2cn[nH]c2)c2c1C(=O)NC2)c1ccccc1` [Example 55, N-(3-oxo-7-(1H-pyrazol-4-yl)isoindolin-4-yl)benzamide] stands 4620 nM.
The same measure, in the same setting: as for `O=C1NCc2c(-c3ccccc3)ccc(NCCO)c21` [Example 256, 7-((2-Hydroxyethyl)amino)-4-phenylisoindolin-1-one], the figure is 4900 nM; as for `CCOc1ccccc1-c1ccc(NC(=O)c2ccccc2)c2c1CNC2=O` [Example 182, N-(7-(2-ethoxyphenyl)-3-oxoisoindolin-4-yl)benzamide], 2800 nM.
With `CCc1ccc(NC(=O)c2ccccc2)c2c1CNC2=O` [Example 29, N-(7-ethyl-3-oxoisoindolin-4-yl)benzamide], the IC50 was 1800 nM.
On to `O=C(Nc1ccc(-c2ccccc2O)c2c1C(=O)NC2)c1ccc(NCCCO)cc1` [Example 355], for which the IC50 stood at 590 nM.
On the same count and under the same terms, as for `Cc1cccc(-c2ccc(NC(=O)c3ccccc3)c3c2CNC3=O)c1` [Example 113, N-(3-oxo-7-(m-tolyl)isoindolin-4-yl)benzamide], the figure is 1700 nM.
